Measurements published in ChEMBL document CHEMBL1126625, “7-Azetidinylquinolones as antibacterial agents. Synthesis and structure-activity relationships” (J Med Chem, 1993).
Converted amounts (≈) assume the structure as drawn.

Tests used:
Format in all cases: functional
Escherichia coli = assay: Minimum inhibitory concentration (MIC)preventing growth of Escherichia coli
Staphylococcus aureus = assay: Minimum inhibitory concentration (MIC) preventing growth of […]
Bacillus subtilis = assay: Minimum inhibitory concentration (MIC) preventing growth of Bacillus subtilis
Enterococcus faecalis = assay: Minimum inhibitory concentration (MIC) preventing growth of Streptococcus faecalis ATCC 10541
Klebsiella pneumoniae = assay: Minimum inhibitory concentration (MIC)preventing growth of Klebsiella pneumoniae
Enterobacter cloacae = assay: Minimum inhibitory concentration (MIC)preventing growth of Enterobacter cloacae
Pseudomonas aeruginosa = assay: Minimum inhibitory concentration (MIC)preventing growth of Pseudomonas aeruginosa
Proteus vulgaris = assay: Minimum inhibitory concentration (MIC) preventing growth of Proteus vulgaris
Morganella morganii = assay: Minimum inhibitory concentration (MIC) preventing growth of Morganella morganii
[1] = tested on: Staphylococcus epidermidis; assay: Minimum inhibitory concentration (MIC) preventing growth of Staphylococcus epidermidis
Bacillus cereus = assay: Minimum inhibitory concentration (MIC) preventing growth of Bacillus cereus

| Structure (SMILES) | MIC (Escherichia coli) [µg/mL] | MIC (Staphylococcus aureus) [µg/mL] | MIC (Bacillus subtilis) [µg/mL] | MIC (Enterococcus faecalis) [µg/mL] | MIC (Klebsiella pneumoniae) [µg/mL] | MIC (Enterobacter cloacae) [µg/mL] | MIC (Pseudomonas aeruginosa) [µg/mL] | MIC (Proteus vulgaris) [µg/mL] | MIC (Morganella morganii) [µg/mL] | MIC [1] [µg/mL] | MIC (Bacillus cereus) [µg/mL] |
| --- | --- | --- | --- | --- | --- | --- | --- | --- | --- | --- | --- |
| CCC1(O)CN(c2c(F)cc3c(=O)c(C(=O)O)cn(C4CC4)c3c2F)C1 | 0.25 (≈ 0.686 µM) | 0.5 (≈ 1.37 µM) | 0.06 (≈ 0.165 µM) | 1 (≈ 2.74 µM) | 0.12 (≈ 0.329 µM) | 0.5 (≈ 1.37 µM) | 2 (≈ 5.49 µM) | 0.25 (≈ 0.686 µM) | 0.5 (≈ 1.37 µM) | 0.25 (≈ 0.686 µM) | 0.5 (≈ 1.37 µM) |
| CNC1CN(c2nc3c(cc2F)c(=O)c(C(=O)O)cn3C2CC2)C1 | 0.03 (≈ 0.0903 µM) | 0.25 (≈ 0.752 µM) | 0.06 (≈ 0.181 µM) | 0.5 (≈ 1.5 µM) | 0.03 (≈ 0.0903 µM) | 0.03 (≈ 0.0903 µM) | 0.5 (≈ 1.5 µM) | 0.25 (≈ 0.752 µM) | 0.06 (≈ 0.181 µM) | 0.12 (≈ 0.361 µM) | 0.12 (≈ 0.361 µM) |
| Nc1c(F)c(N2CC(O)C2)c(F)c2c1c(=O)c(C(=O)O)cn2C1CC1 | 0.06 (≈ 0.171 µM) | 0.06 (≈ 0.171 µM) | 0.015 (≈ 0.0427 µM) | 2 (≈ 5.69 µM) | 0.015 (≈ 0.0427 µM) | 0.12 (≈ 0.342 µM) | 2 (≈ 5.69 µM) | 0.12 (≈ 0.342 µM) | 0.12 (≈ 0.342 µM) | 0.06 (≈ 0.171 µM) | 0.015 (≈ 0.0427 µM) |
| CC1(CN)CN(c2cc3c(cc2F)c(=O)c(C(=O)O)cn3C2CC2)C1 | 0.12 (≈ 0.347 µM) | 0.25 (≈ 0.724 µM) | 0.06 (≈ 0.174 µM) | 0.5 (≈ 1.45 µM) | 0.25 (≈ 0.724 µM) | 0.25 (≈ 0.724 µM) | 1 (≈ 2.9 µM) | 0.12 (≈ 0.347 µM) | 0.12 (≈ 0.347 µM) | 0.25 (≈ 0.724 µM) | 0.12 (≈ 0.347 µM) |
| CCNC1CN(c2cc3c(cc2F)c(=O)c2c(=O)[nH]sc2n3C2CC2)C1 | 0.03 (≈ 0.0801 µM) | 0.06 (≈ 0.16 µM) | 0.03 (≈ 0.0801 µM) | 0.5 (≈ 1.34 µM) | 0.03 (≈ 0.0801 µM) | 0.03 (≈ 0.0801 µM) | 0.5 (≈ 1.34 µM) | 0.12 (≈ 0.32 µM) | 0.06 (≈ 0.16 µM) | 0.06 (≈ 0.16 µM) | 0.12 (≈ 0.32 µM) |
| CC1(N)CN(c2cc3c(cc2F)c(=O)c2c(=O)[nH]sc2n3C2CC2)C1 | 0.015 (≈ 0.0416 µM) | 0.06 (≈ 0.166 µM) | 0.015 (≈ 0.0416 µM) | 0.12 (≈ 0.333 µM) | 0.015 (≈ 0.0416 µM) | 0.015 (≈ 0.0416 µM) | 0.25 (≈ 0.694 µM) | 0.06 (≈ 0.166 µM) | 0.015 (≈ 0.0416 µM) | 0.03 (≈ 0.0832 µM) | 0.03 (≈ 0.0832 µM) |
| CC(=O)OC1CN(c2c(F)cc3c(=O)c(C(=O)O)cn(C4CC4)c3c2F)C1 | 0.12 (≈ 0.317 µM) | 0.12 (≈ 0.317 µM) | 0.015 (≈ 0.0396 µM) | 2 (≈ 5.29 µM) | 0.015 (≈ 0.0396 µM) | 0.12 (≈ 0.317 µM) | 2 (≈ 5.29 µM) | 0.12 (≈ 0.317 µM) | 0.25 (≈ 0.661 µM) | 0.12 (≈ 0.317 µM) | 0.12 (≈ 0.317 µM) |
